# Source: ChEMBL document CHEMBL3046163, “Cross-resistance relationships between neonicotinoids and pymetrozine in Bemisia tabaci (Hemiptera: Aleyrodidae)” (2010)
# How the values were obtained:
# Assay type in all cases: functional
# Bemisia tabaci [1] = test: Resistance ratio of LC50 for Bemisia tabaci biotype-B B4 (sweet potato whitefly) to LC50 for Bemisia tabaci LABS
# Bemisia tabaci [2] = test: Resistance ratio of LC50 for Bemisia tabaci biotype-B B3 (sweet potato whitefly) to LC50 for Bemisia tabaci LABS
# Bemisia tabaci [3] = test: Resistance ratio of LC50 for Bemisia tabaci biotype-B B2 (sweet potato whitefly) to LC50 for Bemisia tabaci LABS
# Bemisia tabaci [4] = test: Resistance ratio of LC50 for Bemisia tabaci biotype-B B1 (sweet potato whitefly) to LC50 for Bemisia tabaci LABS
# Bemisia tabaci [5] = test: Resistance ratio of LC50 for Bemisia tabaci biotype-Q Q3 (sweet potato whitefly) to LC50 for Bemisia tabaci LABS
# Bemisia tabaci [6] = test: Resistance ratio of LC50 for Bemisia tabaci biotype-Q Q2 (sweet potato whitefly) to LC50 for Bemisia tabaci LABS
# Bemisia tabaci [7] = test: Resistance ratio of LC50 for Bemisia tabaci biotype-Q Q1 (sweet potato whitefly) to LC50 for Bemisia tabaci LABS
# Bemisia tabaci [8] = test: Insecticidal activity against Bemisia tabaci biotype-B B4 (sweet potato whitefly) after 48 hr by leaf-dip bioassay; conditions: biotype-B B4, 48 h
# Bemisia tabaci [9] = test: Insecticidal activity against Bemisia tabaci biotype-B B3 (sweet potato whitefly) after 48 hr by leaf-dip bioassay; conditions: biotype-B B3, 48 h
# Bemisia tabaci [10] = test: Insecticidal activity against Bemisia tabaci biotype-B B2 (sweet potato whitefly) after 48 hr by leaf-dip bioassay; conditions: biotype-B B2, 48 h
# Bemisia tabaci [11] = test: Insecticidal activity against Bemisia tabaci biotype-Q Q3 (sweet potato whitefly) after 48 hr by leaf-dip bioassay; conditions: biotype-Q Q3, 48 h
# Bemisia tabaci [12] = test: Insecticidal activity against Bemisia tabaci biotype-B B1 (sweet potato whitefly) after 48 hr by leaf-dip bioassay; conditions: biotype-B B1, 48 h
# Bemisia tabaci [13] = test: Insecticidal activity against Bemisia tabaci biotype-Q Q2 (sweet potato whitefly) after 48 hr by leaf-dip bioassay; conditions: biotype-Q Q2, 48 h
# Bemisia tabaci [14] = test: Insecticidal activity against Bemisia tabaci LABS (sweet potato whitefly) after 48 hr by leaf-dip bioassay
# Bemisia tabaci [15] = test: Insecticidal activity against Bemisia tabaci biotype-Q Q1 (sweet potato whitefly) after 48 hr by leaf-dip bioassay; conditions: biotype-Q Q1, 48 h
# Bemisia tabaci [16] = test: Selectivity ratio of LC50 for pymetrozine-selected Bemisia tabaci B2 (sweet potato whitefly) to LC50 for Bemisia tabaci B2
# Bemisia tabaci [17] = test: Insecticidal activity against pymetrozine-selected Bemisia tabaci B2 (sweet potato whitefly) after 48 hr by leaf-dip bioassay; conditions: B2, 48 h
# Bemisia tabaci [18] = test: Insecticidal activity against pymetrozine-selected Bemisia tabaci B2 (sweet potato whitefly) after 96 hr by leaf-dip bioassay; conditions: B2, 96 h
# Bemisia tabaci [19] = test: Selectivity ratio of LC50 for thiamethoxam-selected Bemisia tabaci B1B3 (sweet potato whitefly) to LC50 for Bemisia tabaci B1B3
# Bemisia tabaci [20] = test: Insecticidal activity against thiamethoxam-selected Bemisia tabaci B1B3 (sweet potato whitefly) after 96 hr by leaf-dip bioassay; conditions: B1B3, 96 h
# Bemisia tabaci [21] = test: Insecticidal activity against pymetrozine-selected Bemisia tabaci B1B3 (sweet potato whitefly) after 96 hr by leaf-dip bioassay; conditions: B1B3, 96 h
# Bemisia tabaci [22] = test: Insecticidal activity against Bemisia tabaci B1B3 (sweet potato whitefly) after 96 hr by leaf-dip bioassay; conditions: B1B3, 96 h
# Bemisia tabaci [23] = test: Selectivity ratio of LC50 for pymetrozine-selected Bemisia tabaci B1B3 (sweet potato whitefly) to LC50 for Bemisia tabaci B1B3
# Bemisia tabaci [24] = test: Insecticidal activity against Bemisia tabaci biotype-B B4 (sweet potato whitefly) after 96 hr by leaf-dip bioassay; conditions: biotype-B B4, 96 h
# Bemisia tabaci [25] = test: Insecticidal activity against Bemisia tabaci biotype-B B2 (sweet potato whitefly) after 96 hr by leaf-dip bioassay; conditions: biotype-B B2, 96 h
# Bemisia tabaci [26] = test: Insecticidal activity against Bemisia tabaci biotype-B B3 (sweet potato whitefly) after 96 hr by leaf-dip bioassay; conditions: biotype-B B3, 96 h
# Bemisia tabaci [27] = test: Insecticidal activity against Bemisia tabaci biotype-B B1 (sweet potato whitefly) after 96 hr by leaf-dip bioassay; conditions: biotype-B B1, 96 h
# Bemisia tabaci [28] = test: Insecticidal activity against Bemisia tabaci biotype-Q Q3 (sweet potato whitefly) after 96 hr by leaf-dip bioassay; conditions: biotype-Q Q3, 96 h
# Bemisia tabaci [29] = test: Insecticidal activity against Bemisia tabaci biotype-Q Q2 (sweet potato whitefly) after 96 hr by leaf-dip bioassay; conditions: biotype-Q Q2, 96 h
# Bemisia tabaci [30] = test: Insecticidal activity against Bemisia tabaci biotype-Q Q1 (sweet potato whitefly) after 96 hr by leaf-dip bioassay; conditions: biotype-Q Q1, 96 h
# Bemisia tabaci [31] = test: Insecticidal activity against Bemisia tabaci LABS (sweet potato whitefly) after 96 hr by leaf-dip bioassay
# Bemisia tabaci [32] = test: Insecticidal activity against thiamethoxam-selected Bemisia tabaci B1B3 (sweet potato whitefly) after 48 hr by leaf-dip bioassay; conditions: B1B3, 48 h
# Bemisia tabaci [33] = test: Insecticidal activity against pymetrozine-selected Bemisia tabaci B1B3 (sweet potato whitefly) after 48 hr by leaf-dip bioassay; conditions: B1B3, 48 h
# Bemisia tabaci [34] = test: Insecticidal activity against Bemisia tabaci B1B3 (sweet potato whitefly) after 48 hr by leaf-dip bioassay; conditions: B1B3, 48 h
Structure (SMILES),RatioLC50 (Bemisia tabaci [1]),RatioLC50 (Bemisia tabaci [2]),RatioLC50 (Bemisia tabaci [3]),RatioLC50 (Bemisia tabaci [4]),RatioLC50 (Bemisia tabaci [5]),RatioLC50 (Bemisia tabaci [6]),RatioLC50 (Bemisia tabaci [7]),LC50 (Bemisia tabaci [8]) [µg/mL],LC50 (Bemisia tabaci [9]) [µg/mL],LC50 (Bemisia tabaci [10]) [µg/mL],LC50 (Bemisia tabaci [11]) [µg/mL],LC50 (Bemisia tabaci [12]) [µg/mL],LC50 (Bemisia tabaci [13]) [µg/mL],LC50 (Bemisia tabaci [14]) [µg/mL],LC50 (Bemisia tabaci [15]) [µg/mL],RatioLC50 (Bemisia tabaci [16]),LC50 (Bemisia tabaci [17]) [µg/mL],RatioLC50 (Bemisia tabaci [19]),RatioLC50 (Bemisia tabaci [23]),further results
C/C(=N\C#N)N(C)Cc1ccc(Cl)nc1 [ACETAMIPRID],15,30,1.2,2.1,57,20,0.95,54,110,4.3,210,7.6,74,3.7,3.5,,,,,
O=[N+]([O-])/N=C1\NCCN1Cc1ccc(Cl)nc1 [IMIDACLOPRID],230,230,3.5,1.2,850,420,1.8,1100,1100,17,4100,5.8,2000,4.8,8.5,0.92,23,,,
CC1=NNC(=O)N(/N=C/c2cccnc2)C1 [PYMETROZINE],520,1100,92,1.6,1900,390,5.8,,,,,,,,,54,,7.9,23,LC50 (Bemisia tabaci [18]): 15000 µg/mL; LC50 (Bemisia tabaci [20]): 1100 µg/mL; LC50 (Bemisia tabaci [21]): 3200 µg/mL; LC50 (Bemisia tabaci [22]): 140 µg/mL; LC50 (Bemisia tabaci [24]): 1200 µg/mL; LC50 (Bemisia tabaci [25]): 220 µg/mL; LC50 (Bemisia tabaci [26]): 1200 µg/mL; LC50 (Bemisia tabaci [27]): 3.9 µg/mL; LC50 (Bemisia tabaci [28]): 4600 µg/mL; LC50 (Bemisia tabaci [29]): 930 µg/mL; LC50 (Bemisia tabaci [30]): 14 µg/mL; LC50 (Bemisia tabaci [31]): 2.4 µg/mL
CN1COCN(Cc2cnc(Cl)s2)/C1=N\[N+](=O)[O-] [THIAMETHOXAM],73,150,2.9,6.3,490,240,3.7,300,100,12,2000,4.5,980,4.1,15,0.29,8.6,7,4.5,LC50 (Bemisia tabaci [32]): 450 µg/mL; LC50 (Bemisia tabaci [33]): 290 µg/mL; LC50 (Bemisia tabaci [34]): 64 µg/mL
